Values quoted from earlier work in patent US6896899B2, “Pharmaceutical preparations of glutathione and methods of administration thereof” (Antioxidant Pharmaceuticals Corp., priority 1996, dated 2005).

Columns and labels:
[1] = human, in vivo, iv
[2] = human, in vivo, po, 15 mg/kg
[3] = tested on: blood pressure; details: 3,699 mg dose, normal subjects
[4] = tested on: Mouse; details: GSH pretreatment
[5] = tested on: hematologic parameters; details: 1,200 mg/day intravenously
[6] = tested on: HIV; details: acutely infected cells, chronically infected cells, normal peripheral blood mononuclear cells
[7] = tested on: hepatocellular carcinoma

## N[C@@H](CCC(=O)N[C@@H](CS)C(=O)NCC(=O)O)C(=O)O [GSH, gamma-glutamyl-cysteinyl-glycine]
[1]
  volume of distribution of exogenous glutathione: 176-107 Ml/Kg
[2]
  plasma glutathione levels over the basal concentration: 1.5-10 fold
[3]
  blood pressure: significant decrease
[4]
  protection against morphine-induced lethality: protects against morphine-induced lethality
[5]
  hematologic parameters (hematocrit, hemoglobin, blood count) compared to baseline: significantly increase
[6]
  cytokine-stimulated HIV expression and replication: can inhibit
[7]; 5 g oral GSH per day
  tumor growth and survival: Two of the female patients survived 1 year and exhibited regression or stagnation of their tumor growth
[7]; human, in vivo, po
  side-effects: Two patients withdrew shortly after receiving GSH due to intolerable side-effects

## CC(=O)N[C@@H](CS)C(=O)O [NAC, N-acetyl cysteine]
[6]
  cytokine-stimulated HIV expression and replication: can inhibit
